# Laboratory results: publication PMC8371461 (Frontiers in Pharmacology, 2021)
# Experiments:
# [1] = target: T1, AURKA (Homo sapiens, UniProt O14965); test: kinome scan; type: binding; conditions: 10 µM
# T1 construct: purchased DiscoverX (KINOMEscan)
# [2] = target: T2, BMPR1B (Homo sapiens, UniProt O00238); test: kinome scan; type: binding; conditions: 10 µM
# T2 construct: purchased DiscoverX (KINOMEscan)
# [3] = target: T3, CAMK2A (Homo sapiens, UniProt Q9UQM7); test: kinome scan; type: binding; conditions: 10 µM
# T3 construct: purchased DiscoverX (KINOMEscan)
# T3 sequence (Q9UQM7 whole entry): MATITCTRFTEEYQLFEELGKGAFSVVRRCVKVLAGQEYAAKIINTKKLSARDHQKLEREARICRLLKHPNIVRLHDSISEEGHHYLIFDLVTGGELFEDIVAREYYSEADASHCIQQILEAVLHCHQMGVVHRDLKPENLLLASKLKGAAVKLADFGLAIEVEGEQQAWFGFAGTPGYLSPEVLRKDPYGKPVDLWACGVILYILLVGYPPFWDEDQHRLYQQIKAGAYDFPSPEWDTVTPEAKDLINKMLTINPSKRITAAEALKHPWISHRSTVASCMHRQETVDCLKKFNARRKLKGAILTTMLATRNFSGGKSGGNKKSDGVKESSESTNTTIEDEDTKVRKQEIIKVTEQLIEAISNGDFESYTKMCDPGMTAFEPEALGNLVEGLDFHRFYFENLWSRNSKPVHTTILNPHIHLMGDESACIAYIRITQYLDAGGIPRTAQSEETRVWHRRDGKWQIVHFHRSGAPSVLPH
# [4] = target: T4, CAMK2B (Homo sapiens, UniProt Q13554); test: kinome scan; type: binding; conditions: 10 µM
# T4 construct: purchased DiscoverX (KINOMEscan)
# T4 sequence (Q13554 whole entry): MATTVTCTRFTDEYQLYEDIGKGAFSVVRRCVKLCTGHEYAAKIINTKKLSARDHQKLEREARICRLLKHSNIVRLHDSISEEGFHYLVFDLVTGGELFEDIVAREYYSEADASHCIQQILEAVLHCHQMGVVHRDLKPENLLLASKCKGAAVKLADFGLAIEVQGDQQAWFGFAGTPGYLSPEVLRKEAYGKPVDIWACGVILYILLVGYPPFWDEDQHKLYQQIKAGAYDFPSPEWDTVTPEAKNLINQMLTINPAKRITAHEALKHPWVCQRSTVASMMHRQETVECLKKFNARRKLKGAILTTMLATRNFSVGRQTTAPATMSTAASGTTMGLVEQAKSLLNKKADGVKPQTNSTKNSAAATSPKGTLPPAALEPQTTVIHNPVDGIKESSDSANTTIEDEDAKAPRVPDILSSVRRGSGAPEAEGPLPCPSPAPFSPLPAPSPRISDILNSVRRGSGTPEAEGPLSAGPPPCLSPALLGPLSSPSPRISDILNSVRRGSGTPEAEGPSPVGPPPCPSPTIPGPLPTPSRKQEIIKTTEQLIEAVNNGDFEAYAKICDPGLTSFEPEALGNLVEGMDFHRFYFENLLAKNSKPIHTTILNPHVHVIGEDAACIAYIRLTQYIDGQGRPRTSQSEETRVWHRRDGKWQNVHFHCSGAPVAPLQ
# [5] = target: T5, CAMKK1 (Homo sapiens, UniProt Q8N5S9); test: kinome scan; type: binding; conditions: 10 µM
# T5 construct: purchased DiscoverX (KINOMEscan)
# [6] = target: T6, CDK7 (Homo sapiens, UniProt P50613); test: kinome scan; type: binding; conditions: 10 µM
# T6 construct: purchased DiscoverX (KINOMEscan)
# [7] = target: T7, CDKL2 (Homo sapiens, UniProt Q92772); test: kinome scan; type: binding; conditions: 10 µM
# T7 construct: purchased DiscoverX (KINOMEscan)
# [8] = target: T8, CLK1 (Homo sapiens, UniProt P49759); test: kinome scan; type: binding; conditions: 10 µM
# T8 construct: purchased DiscoverX (KINOMEscan)
# [9] = target: T9, CSNK1A1L (Homo sapiens, UniProt Q8N752); test: kinome scan; type: binding; conditions: 10 µM
# T9 construct: purchased DiscoverX (KINOMEscan)
# [10] = target: T10, EGFR(S752-I759del) (Homo sapiens, UniProt P00533, DEL752-759); test: kinome scan; type: binding; conditions: 10 µM
# T10 construct: purchased DiscoverX (KINOMEscan)
# T10 sequence (P00533 with tags, fused parts or gaps DEL752-759 limits assumed): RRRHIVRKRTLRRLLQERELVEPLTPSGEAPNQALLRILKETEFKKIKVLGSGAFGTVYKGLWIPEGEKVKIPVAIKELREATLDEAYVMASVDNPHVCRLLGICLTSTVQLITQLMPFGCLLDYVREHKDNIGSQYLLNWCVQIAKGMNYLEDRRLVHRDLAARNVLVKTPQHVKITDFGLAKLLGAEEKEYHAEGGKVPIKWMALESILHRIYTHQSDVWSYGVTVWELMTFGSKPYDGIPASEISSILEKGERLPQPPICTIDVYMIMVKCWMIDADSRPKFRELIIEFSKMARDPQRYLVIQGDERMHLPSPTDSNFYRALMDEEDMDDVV
# [11] = target: T11, EPHA4 (Homo sapiens, UniProt P54764); test: kinome scan; type: binding; conditions: 10 µM
# T11 construct: purchased DiscoverX (KINOMEscan)
# [12] = target: T12, EPHA8 (Homo sapiens, UniProt P29322); test: kinome scan; type: binding; conditions: 10 µM
# T12 construct: purchased DiscoverX (KINOMEscan)
# [13] = target: T13, EPHB1 (Homo sapiens, UniProt P54762); test: kinome scan; type: binding; conditions: 10 µM
# T13 construct: purchased DiscoverX (KINOMEscan)
# [14] = target: T14, EPHB6 (Homo sapiens, UniProt O15197); test: kinome scan; type: binding; conditions: 10 µM
# T14 construct: purchased DiscoverX (KINOMEscan)
# [15] = target: T15, ERK2 (Homo sapiens, UniProt P28482); test: kinome scan; type: binding; conditions: 10 µM
# T15 construct: purchased DiscoverX (KINOMEscan)
# T15 sequence (P28482 whole entry): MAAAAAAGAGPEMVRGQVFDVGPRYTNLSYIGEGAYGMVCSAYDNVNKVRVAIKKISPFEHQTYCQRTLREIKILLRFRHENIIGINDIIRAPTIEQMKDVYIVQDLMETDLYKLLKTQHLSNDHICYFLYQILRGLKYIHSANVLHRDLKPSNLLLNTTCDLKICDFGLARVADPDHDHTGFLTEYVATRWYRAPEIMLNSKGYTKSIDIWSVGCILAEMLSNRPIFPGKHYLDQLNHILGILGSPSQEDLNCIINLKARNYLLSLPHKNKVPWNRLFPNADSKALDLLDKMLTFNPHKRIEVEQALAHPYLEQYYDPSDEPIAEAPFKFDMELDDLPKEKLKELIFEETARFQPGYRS
# [16] = target: T16, ERN1 (Homo sapiens, UniProt O75460); test: kinome scan; type: binding; conditions: 10 µM
# T16 construct: purchased DiscoverX (KINOMEscan)
# [17] = target: T17, FGFR3(G697C) (Homo sapiens, UniProt P22607, G697C); test: kinome scan; type: binding; conditions: 10 µM
# T17 construct: purchased DiscoverX (KINOMEscan)
# [18] = target: T18, ICK (Homo sapiens, UniProt Q9UPZ9); test: kinome scan; type: binding; conditions: 10 µM
# T18 construct: purchased DiscoverX (KINOMEscan)
# [19] = target: T19, INSR (Homo sapiens, UniProt P06213); test: kinome scan; type: binding; conditions: 10 µM
# T19 construct: purchased DiscoverX (KINOMEscan)
# T19 sequence (P06213 28-1382): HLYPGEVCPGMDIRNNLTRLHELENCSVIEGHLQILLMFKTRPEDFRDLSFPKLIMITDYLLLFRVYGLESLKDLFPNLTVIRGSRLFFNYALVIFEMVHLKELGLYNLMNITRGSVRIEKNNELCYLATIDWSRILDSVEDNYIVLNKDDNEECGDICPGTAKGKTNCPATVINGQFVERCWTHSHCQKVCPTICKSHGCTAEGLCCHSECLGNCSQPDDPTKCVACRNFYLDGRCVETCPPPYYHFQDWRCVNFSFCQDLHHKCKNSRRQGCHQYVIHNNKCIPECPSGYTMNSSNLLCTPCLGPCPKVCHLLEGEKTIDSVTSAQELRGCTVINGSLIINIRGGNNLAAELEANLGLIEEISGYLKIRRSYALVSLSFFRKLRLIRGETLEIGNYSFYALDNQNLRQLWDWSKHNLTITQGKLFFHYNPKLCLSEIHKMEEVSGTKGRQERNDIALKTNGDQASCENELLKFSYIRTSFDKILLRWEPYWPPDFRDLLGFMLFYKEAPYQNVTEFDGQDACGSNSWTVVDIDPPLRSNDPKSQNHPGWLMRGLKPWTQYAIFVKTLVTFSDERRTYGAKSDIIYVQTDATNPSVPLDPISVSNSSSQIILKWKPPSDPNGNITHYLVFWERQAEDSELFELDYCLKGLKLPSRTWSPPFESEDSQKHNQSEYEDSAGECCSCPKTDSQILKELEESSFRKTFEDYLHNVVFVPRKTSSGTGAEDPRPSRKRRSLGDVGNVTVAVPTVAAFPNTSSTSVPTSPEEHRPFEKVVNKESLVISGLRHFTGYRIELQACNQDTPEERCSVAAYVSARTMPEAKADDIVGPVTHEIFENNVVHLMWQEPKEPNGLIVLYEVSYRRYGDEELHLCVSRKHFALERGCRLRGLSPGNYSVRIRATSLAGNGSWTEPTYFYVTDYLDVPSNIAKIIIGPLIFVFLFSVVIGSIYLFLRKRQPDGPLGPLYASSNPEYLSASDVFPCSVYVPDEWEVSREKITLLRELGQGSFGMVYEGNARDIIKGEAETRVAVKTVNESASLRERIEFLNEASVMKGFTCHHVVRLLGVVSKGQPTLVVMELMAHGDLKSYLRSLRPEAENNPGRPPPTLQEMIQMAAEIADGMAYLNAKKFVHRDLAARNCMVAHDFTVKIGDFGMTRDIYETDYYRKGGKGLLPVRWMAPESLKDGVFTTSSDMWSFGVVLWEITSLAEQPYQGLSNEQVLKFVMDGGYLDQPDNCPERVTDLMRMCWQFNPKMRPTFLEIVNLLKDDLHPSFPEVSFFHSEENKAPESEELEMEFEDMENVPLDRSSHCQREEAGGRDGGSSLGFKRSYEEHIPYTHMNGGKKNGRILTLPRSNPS
# [20] = target: T20, LIMK2 (Homo sapiens, UniProt P53671); test: kinome scan; type: binding; conditions: 10 µM
# T20 construct: purchased DiscoverX (KINOMEscan)
# [21] = target: T21, MST4 (Homo sapiens, UniProt Q9P289); test: kinome scan; type: binding; conditions: 10 µM
# T21 construct: purchased DiscoverX (KINOMEscan)
# [22] = target: T22, MYLK2 (Homo sapiens, UniProt Q9H1R3); test: kinome scan; type: binding; conditions: 10 µM
# T22 construct: purchased DiscoverX (KINOMEscan)
# [23] = target: T23, p38-beta (Homo sapiens, UniProt Q15759); test: kinome scan; type: binding; conditions: 10 µM
# T23 construct: purchased DiscoverX (KINOMEscan)
# T23 sequence (Q15759 whole entry): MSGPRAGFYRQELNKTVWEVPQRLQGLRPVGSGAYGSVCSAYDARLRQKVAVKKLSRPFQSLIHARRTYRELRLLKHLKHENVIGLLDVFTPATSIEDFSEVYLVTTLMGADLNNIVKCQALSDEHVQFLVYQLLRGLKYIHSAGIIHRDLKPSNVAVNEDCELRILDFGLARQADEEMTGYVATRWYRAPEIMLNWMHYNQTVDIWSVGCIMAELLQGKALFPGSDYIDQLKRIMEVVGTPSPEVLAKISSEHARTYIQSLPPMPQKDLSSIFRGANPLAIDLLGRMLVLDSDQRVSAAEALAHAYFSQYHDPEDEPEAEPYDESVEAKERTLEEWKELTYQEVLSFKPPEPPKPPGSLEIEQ
# [24] = target: T24, PRKR (Homo sapiens, UniProt P19525); test: kinome scan; type: binding; conditions: 10 µM
# T24 construct: purchased DiscoverX (KINOMEscan)
# [25] = target: T25, PRKX (Homo sapiens, UniProt P51817); test: kinome scan; type: binding; conditions: 10 µM
# T25 construct: purchased DiscoverX (KINOMEscan)
# [26] = target: T26, RIOK2 (Homo sapiens, UniProt Q9BVS4); test: kinome scan; type: binding
# T26 construct: T7 phage fusion (kinase-tagged phage); purchased DiscoverX; host or cells: BL21-derived E. coli (T7 phage)
# T26 sequence (Q9BVS4 whole entry, the tested form may be a part): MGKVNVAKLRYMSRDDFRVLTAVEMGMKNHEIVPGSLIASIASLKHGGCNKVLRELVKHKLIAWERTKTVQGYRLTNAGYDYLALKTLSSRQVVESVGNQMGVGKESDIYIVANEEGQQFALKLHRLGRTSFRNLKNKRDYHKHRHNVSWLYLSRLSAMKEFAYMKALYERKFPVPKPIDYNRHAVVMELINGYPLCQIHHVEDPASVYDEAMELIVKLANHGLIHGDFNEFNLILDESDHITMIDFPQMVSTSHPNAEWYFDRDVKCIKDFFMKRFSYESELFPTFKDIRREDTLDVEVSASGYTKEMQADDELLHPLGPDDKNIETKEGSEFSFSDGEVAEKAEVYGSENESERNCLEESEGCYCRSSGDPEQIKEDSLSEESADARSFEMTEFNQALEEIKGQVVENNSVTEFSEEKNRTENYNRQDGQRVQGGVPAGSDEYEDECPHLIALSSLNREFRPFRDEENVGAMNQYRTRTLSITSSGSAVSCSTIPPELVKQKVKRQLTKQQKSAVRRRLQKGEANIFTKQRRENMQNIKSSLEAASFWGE
# [27] = target: T27, TAK1 (Homo sapiens, UniProt O43318); test: kinome scan; type: binding; conditions: 10 µM
# T27 construct: purchased DiscoverX (KINOMEscan)
# T27 sequence (O43318 whole entry): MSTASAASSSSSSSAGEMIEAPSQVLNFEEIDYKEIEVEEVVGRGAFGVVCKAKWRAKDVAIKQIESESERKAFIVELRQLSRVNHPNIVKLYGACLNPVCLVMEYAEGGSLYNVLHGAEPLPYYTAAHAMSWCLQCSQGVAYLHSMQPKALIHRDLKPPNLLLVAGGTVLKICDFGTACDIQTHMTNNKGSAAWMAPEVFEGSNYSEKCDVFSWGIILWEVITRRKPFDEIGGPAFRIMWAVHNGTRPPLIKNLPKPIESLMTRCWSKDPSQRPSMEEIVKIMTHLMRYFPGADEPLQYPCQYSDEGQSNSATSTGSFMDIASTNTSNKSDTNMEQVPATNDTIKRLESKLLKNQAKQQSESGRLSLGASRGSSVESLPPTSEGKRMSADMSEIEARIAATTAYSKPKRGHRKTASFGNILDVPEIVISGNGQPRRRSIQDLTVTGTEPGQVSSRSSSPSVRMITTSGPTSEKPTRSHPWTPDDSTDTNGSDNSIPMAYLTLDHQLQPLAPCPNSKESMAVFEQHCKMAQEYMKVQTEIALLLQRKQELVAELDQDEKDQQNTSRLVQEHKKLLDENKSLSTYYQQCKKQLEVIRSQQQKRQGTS
# [28] = target: T28, TIE1 (Homo sapiens, UniProt P35590); test: kinome scan; type: binding; conditions: 10 µM
# T28 construct: purchased DiscoverX (KINOMEscan)
# [29] = target: T29, TIE2 (Homo sapiens, UniProt Q02763); test: kinome scan; type: binding; conditions: 10 µM
# T29 construct: purchased DiscoverX (KINOMEscan)
# [30] = target: T30, TLK2 (Homo sapiens, UniProt Q86UE8); test: kinome scan; type: binding; conditions: 10 µM
# T30 construct: purchased DiscoverX (KINOMEscan)
# [31] = target: T31, TRPM6 (Homo sapiens, UniProt Q9BX84); test: kinome scan; type: binding; conditions: 10 µM
# T31 construct: purchased DiscoverX (KINOMEscan)
# [32] = target: T32, YANK1 (Homo sapiens, UniProt Q8WU08); test: kinome scan; type: binding; conditions: 10 µM
# T32 construct: purchased DiscoverX (KINOMEscan)
# [33] = test system: CGR8EF1αS,RLuc-Tα1,FLuc cells; test: neural differentiation, Dual Luciferase Reporter Assay (FLuc/RLuc); type: cell-based, mouse; conditions: 72 h, normalized to DMSO
# Description: The CGR8 mouse PSC were cultured as described ([Suter et al., 2009]). For neural induction, CGR8 cells were plated in 96-well plates at a density of 10,000 cells/cm^2 on gelatine-coated cell culture plates, in differentiation medium [BHK-21 medium supplemented with 20% foetal calf serum (Thermofisher), L-glutamine 2 mM (Thermofisher), non-essential amino acids (1X, Thermofisher), sodium pyruvate 1 mM (Thermofisher), penicillin/streptomycin 50 U/ml (Thermofisher)]. CGR8EF1αS,RLuc-Tα1,FLuc cells were described in ([Suter et al., 2009]) and were cultured as described above. Luminescence assays were directly performed in 96-well plates with the Dual Luciferase Reporter Assay System (Promega) according to the manufacturer’s instructions. Luminescence was measured with the SpectraMax L Microplate luminometer (Molecular Devices). Cell viability in the wells was measured by the addition of propidium iodide 1 µg/ml in 100 µL of PBS and fluorescence was assessed in each well using a FluoStar Optima reader (Pharmaceutical Technology Group at the University of Geneva).
# The CGR8 PSC line was stably transduced with a dual promoter/reporter gene construct containing a ubiquitous promoter (EF1αS) controlling the expression of Renilla Luciferase (RLuc) and also an early neural-specific promoter (Tα1), controlling the expression of Firefly Luciferase (FLuc). […]
# [34] = test system: HeLa cells; test: LC3B positive autophagosomes, immunofluorescent staining; type: cell-based; conditions: 10 µM, three days
# Description: Cells were fixed with PBS containing 0.5% of para-formaldehyde for 15 min at room temperature. After three washing steps in PBS, cells were permeabilized with PBS containing 0.3% of Triton X-100 (Sigma) for 1 h at room temperature. After washing with PBS three times, cells were incubated overnight with the anti-LC3B antibody in PBS with 1% bovine serum albumin (Sigma) at 4°C. After three washing steps in PBS, cells were incubated with the fluorescent secondary antibody for 90 min at 4°C in PBS with 1% bovine serum albumin. They were then incubated with […] DAPI (Thermofisher) in PBS for 15 min. After washing with PBS, cells were rinsed once in water prior to mounting in the FluorSave reagent (Millipore).
# Depending of these transitory environmental conditions, autophagy can either promote survival or apoptosis ([Degtyarev et al., 2008]). PIK/AKT pathway inhibition has been reported to increase cell autophagy ([Palmieri et al., 2017]). More specifically, PIP4K2C has been described as a down-regulator of autophagy ([Sharma et al., 2019]).
# [35] = test system: Pregnane X receptor (PXR) signaling pathway; parameters: method as in CHEMBL3215112; conditions: reported activity, data mining; ref CHEMBL3215112; cited from earlier work
# [36] = test system: Cytochrome P450 3A4 isoform 1; parameters: method as in PubChem Bioassay ID 884; conditions: reported activity, data mining; ref PubChem Bioassay ID 884; cited from earlier work
compound,measurement,setting,value
"Nc1ccc(N=Nc2ccccc2)c(N)n1 [phenazopyridine, 2,6-diamino-3-(phenylazo)pyridine]",kinase inhibition,[1],100
same,kinase inhibition,[2],95
same,kinase inhibition,[3],97
same,kinase inhibition,[4],100
same,kinase inhibition,[5],100
same,kinase inhibition,[6],50
same,kinase inhibition,[7],85
same,kinase inhibition,[8],91
same,kinase inhibition,[9],100
same,kinase inhibition,[10],97
same,kinase inhibition,[11],86
same,kinase inhibition,[12],86
same,kinase inhibition,[13],100
same,kinase inhibition,[14],67
same,kinase inhibition,[15],92
same,kinase inhibition,[16],82
same,kinase inhibition,[17],100
same,kinase inhibition,[18],90
same,kinase inhibition,[19],75
same,kinase inhibition,[20],96
same,kinase inhibition,[21],96
same,kinase inhibition,[22],91
same,kinase inhibition,[23],83
same,kinase inhibition,[24],86
same,kinase inhibition,[25],91
same,remaining binding (% of control),[26]; 10 µM,0
same,remaining binding at 10 µM,[26]; read-out: % Of control,0%
same,kinase inhibition,[27],80
same,kinase inhibition,[28],91
same,kinase inhibition,[29],98
same,kinase inhibition,[30],100
same,kinase inhibition,[31],100
same,kinase inhibition,[32],98
same,concentration at which an increase of the FLuc signal was observed,[33],1 µM
same,concentration of maximal FLuc signal,[33],10 µM
same,number of LC3B-positive autophagosomes,[34],increased
same,Concentration,[35],7.9 µM
same,Concentration,[36],0.1 µM
